Test results taken from patent EP4813381A1, “PHARMACEUTICAL USE OF GUAIANE SESQUITERPENE DERIVATIVE” (Nanjing University Of Chinese Medicine, priority 2023, dated 2025).

Legend:
[1] = test system: CCl4-induced liver injury; experiment: CCl4 acute liver injury model in mice: serum ALT and AST; type: in vivo, C57BL/6 mice; conditions: 3 days (method: U/L)
From the text: The drug of the present invention, prepared according to Example 2; Silybin, Shanghai Yuanye Biotechnology Co., Ltd.; Olive oil, Beijing […] Olive Oil Development Center; Analytical grade carbon tetrachloride (CCl4), Shantou Xilong Chemical Factory; Sodium carboxymethyl cellulose (CMC-Na), Guangdong Shantou Xilong Chemical Factory; RNA Isolater Total RNA Extraction Reagent, […] RT Supermix for qPCR, Nanjing Vazyme Biotech Co., Ltd.; AceQ qPCR SYBR Green Master Mix, Shanghai Yeasen Biotechnology Co., Ltd.; Aspartate Transaminase (AST/GOT) Colorimetric Test Kit, Alanine Transaminase (ALT/GPT) Colorimetric Test Kit, Wuhan Elabscience Biotechnology Co., Ltd. • Experimental animals: […] SCXK(Su)2019-002. […] They were acclimated for 7 days before use in experiments. • Experimental Methods: Establishment of Acute Liver Injury Model in Mice and Group-Specific Drug Administration • Mice were randomly assigned to groups. […] One hour after the final drug administration, blood was collected from the retinal venous plexus. […] Serum was aspirated, aliquoted, and stored at -70 °C for future use. After blood collection, euthanize mice by cervical dislocation. Perform laparotomy to remove the liver. Rinse twice with pre-chilled PBS. Excise the left hepatic lobe tissue. […] Store remaining tissue at -70 °C for future use. • Serum AST and ALT Assay: Use 10 μL of each sample for testing. Determine mouse serum AST and ALT levels according to the operating manual. Measure absorbance at 510 nm using an enzyme-linked immunosorbent assay (ELISA) reader. Calculate sample concentration (U/L) based on the standard curve. Data Statistics: All data are expressed as means ± standard error of the mean (S.E.M.). Differences were analyzed for significance using analysis of variance (ANOVA). For groups showing significant differences in ANOVA, one-way ANOVA followed by Dunnett's test was performed to compare intergroup differences.

[2] = test system: chronic kidney injury induced by unilateral ureteral ligation; experiment: Unilateral ureteral ligation (UUO) chronic kidney injury model in mice: Scr and BUN; type: in vivo, C57BL/6 mice; conditions: serum, 14 days
[3] = test system: renal injury markers (Ngal, Havcr1), inflammatory cytokines (TNF, IL-6, IL-1), fibrosis-related factors (α-Sma, Col1a1, Tgfb1); experiment: Unilateral ureteral ligation (UUO) chronic kidney injury model in mice: Q-PCR of kidney tissue; type: in vivo, C57BL/6 mice; parameters: Tnf / Il1 / Il6: unit not given here; conditions: kidney mRNA
[4] = test system: acute kidney injury induced by folic acid; experiment: Folic acid acute kidney injury model in mice: serum creatinine (Scr) and blood urea nitrogen (BUN); type: in vivo, C57BL/6 mice; conditions: acute model (FA), 3 days
[5] = test system: CT26 cells; type: in vivo, BALB/c mice; conditions: CT26, oral 80 µmol/kg/day, 3 weeks
[6] = Safety evaluation of Compound 20: 30-day oral gavage in mice (body weight, activity status, survival rate)
[7] = test system: lupus nephritis; experiment: Lupus nephritis MRL/lpr mice: urinary protein, Scr, BUN, urinary Kim-1 and β-MG; type: in vivo; parameters: Scr / BUN / Kim-1 / β-MG: unit not given here; conditions: oral 30 mg/kg, 8 weeks
Description: RT Supermix for qPCR, Nanjing Vazyme Biotech Co., Ltd.; Urea Colorimetric Test Kit, Creatinine Colorimetric Test Kit, Nanjing Jiancheng Biotechnology Co., Ltd.; Urinary Kim-1 and β-MG Content ELISA Kits, Abcam. • Experimental animals: MRL/MpJ and MRL/lpr mice, female, 10 weeks old, purchased from GemPharmatech LLC. Production license number: SCXK(Su)2023-0009. […] They were acclimated for 7 days before use in experiments. […] Oral administration was performed continuously for 8 weeks. […] Aspirate the serum, aliquot it, and store at -70 °C for future use. After blood collection, euthanize mice by cervical dislocation. Open the abdominal cavity, remove kidneys, and dissect out perirenal fat and capsules. […] Store remaining tissues at -70 °C for future use. Serum Creatinine (Scr) and Blood Urea Nitrogen (BUN) Assay: […] Samples were added sequentially strictly according to the kit instructions, incubated at 37 °C, and measured for absorbance values using an enzyme-linked immunosorbent assay (ELISA) reader. The concentration levels of each indicator were calculated based on the standard curve.

C=C1C(=O)O[C@@H]2[C@@H]3[C@]4(CC[C@@]3(C)O)C[C@]4(C)CC[C@@H]12 [compound 1]
ALT ([1]; oral 0.1 mg/kg): 173.58 ± 22.75 | AST ([1]; oral 0.1 mg/kg): 424.52 ± 175.34 | ALT ([1]; oral 1 mg/kg): 104.22 ± 5.21 | AST ([1]; oral 1 mg/kg): 237.16±36.70 | BUN ([2]; oral gavage 0.1 mg/kg): 18.41±1.82 | Scr ([2]; oral gavage 0.1 mg/kg): 176.35±17.11 | BUN ([2]; oral gavage 1 mg/kg): 11.01±1.54 | Scr ([2]; oral gavage 1 mg/kg): 104.65±16.26 | Col1a1 ([3]; oral 0.1 mg/kg): 16.09±3.57 | Havcr1 ([3]; oral 0.1 mg/kg): 12.56±1.95 | Il1 ([3]; oral 0.1 mg/kg): 6.05±0.49 | Il6 ([3]; oral 0.1 mg/kg): 16.52±1.69 | Ngal ([3]; oral 0.1 mg/kg): 37.82±4.85 | Tgfb1 ([3]; oral 0.1 mg/kg): 2.04±0.24 | Tnf ([3]; oral 0.1 mg/kg): 6.41±1.46 | α-Sma ([3]; oral 0.1 mg/kg): 2.32±0.54 | Col1a1 ([3]; oral 1 mg/kg): 9.45±1.03 | Havcr1 ([3]; oral 1 mg/kg): 8.54±1.38 | Il1 ([3]; oral 1 mg/kg): 3.99±0.31 | Il6 ([3]; oral 1 mg/kg): 6.50±1.51 | Ngal ([3]; oral 1 mg/kg): 21.66±6.00 | Tgfb1 ([3]; oral 1 mg/kg): 1.55±0.19 | Tnf ([3]; oral 1 mg/kg): 6.59±1.19 | α-Sma ([3]; oral 1 mg/kg): 1.54±0.12 | BUN ([4]; oral gavage 0.1 mg/kg): 31.46±2.54 | Scr ([4]; oral gavage 0.1 mg/kg): 108.48±11.76 | BUN ([4]; oral gavage 1 mg/kg): 21.33±2.21 | Scr ([4]; oral gavage 1 mg/kg): 71.95±5.74

CN(C)C[C@@H]1C(=O)O[C@H]2[C@H]1CC[C@@]1(C)C[C@]13CC[C@@](C)(O)[C@H]23 [compound 20]
antitumor effects [5]: tumor-inhibiting effects | effect on mouse survival rate ([6]; 500 mg/kg and 1000 mg/kg, 30 days): no significant effect on the survival rate | time to recover to normal activity after administration ([6]; 500, 1000 mg/kg oral gavage): 1 to 2 h | effect on mouse activity status ([6]; 500, 1000 mg/kg oral gavage once daily, 30 days): relatively reduced activity and lethargy after each administration | effect on mouse body weight ([6]; 500, 1000 mg/kg oral gavage once daily, 30 days, female and male mice): no significant effect on the body weight | Survival rate ([6]; female C57BL/6 mice, 500 mg/kg oral gavage once daily for 30 days): 100% | Survival rate ([6]; female C57BL/6 mice, 1000 mg/kg oral gavage once daily for 30 days): 100% | Survival rate ([6]; male C57BL/6 mice, 500 mg/kg oral gavage once daily for 30 days): 100% | Survival rate ([6]; male C57BL/6 mice, 1000 mg/kg oral gavage once daily for 30 days): 100.00% | BUN ([2]; oral gavage 1 mg/kg): 9.39±0.92 | Scr ([2]; oral gavage 1 mg/kg): 64.50±7.13 | α-Sma ([3]; oral 1 mg/kg, 1 mg/kg): 1.26±0.18 | BUN ([4]; oral gavage 1 mg/kg): 16.74±1.42 | Scr ([4]; oral gavage 1 mg/kg): 64.94±9.68 | 24-hour urine protein level [7]: 0.58±0.03 | BUN ([7]; serum): 9.55±0.75 | Scr ([7]; serum): 18.55±1.08 | Kim-1 ([7]; urine): 0.41±0.02 | β-MG ([7]; urine): 13.55±0.14
